Key:
KRAS G12D = target: T1, KRAS G12D (Homo sapiens, UniProt P01116, G12D); assay: HTRF nucleotide exchange assay, KRAS G12D; assay type: biochemical; details: class symbols; for IC50: HTRF nucleotide exchange assay (NEA)
T1 construct: aa1-188 KRAS WT, HRAS WT, NRAS WT, or KRAS containing the G12D
Experimental: (§1) HTRF Nucleotide Exchange Assay Method
(§2) The capacity of compounds to bind KRAS G12D, other KRAS mutants and wildtype RAS isoforms was quantified using a HTRF nucleotide exchange assay. Recombinant human RAS protein (2 nM; aa1-188 KRAS WT, HRAS WT, NRAS WT, or KRAS containing the G12D, G13D or Q61H amino acid substitutions, or 4 nM KRAS; aa1-188 containing the G12V, G12C, G12A or G12S amino acid substitution, an N-terminal 6× His-tag and leader sequence), and 2 nM Europium-labeled anti-6× His antibody were mixed in assay buffer (10 mM HEPES pH 7.3, 150 mM NaCl, 5 mM MgCl2, 0.05% BSA, 0.0025% NP-40 and 100 mM KF) with various concentrations of compound in a 384-well plate and a volume of 5 μL. After a 60-minute incubation at room temperature, 5 μl of 200 nM EDA-GTP-DY647P1 (diluted in assay buffer) was added to the plate. Following 30-minute incubation at room temperature, time-resolved fluorescence was measured on a PerkinElmer Envision plate reader. DMSO (0.3%) and unlabeled GDP (1 μM) or equivalent tool compound were used to generate the Max and Min assay signals, respectively. Data was analysed using a four-parameter logistic model to calculate IC50 values, with at least two independent replicates were performed for each compound. The results are presented as IC50s in Table 29 where “A” corresponds to an IC50 ≤10 nM, “B” to an IC50 >10 nM up to 100 nM, “C” is >100 nM up to 10 μM, “D” represents <49% inhibition at 10 μM and ND=not determined: […]

KRAS WT = target: T2, KRAS WT (Homo sapiens, UniProt P01116); assay: HTRF nucleotide exchange assay, KRAS WT; assay type: biochemical; details: class symbols; for IC50: HTRF nucleotide exchange assay (NEA)
T2 construct: aa1-188 KRAS WT
Experimental: as §1, §2

| SMILES | KRAS^G12D NEA (KRAS G12D) | KRAS^WT NEA (KRAS WT) | IC50 (KRAS G12D) | IC50 (KRAS WT) |
| --- | --- | --- | --- | --- |
| Cn1cc2c(n1)c(-c1ncc(F)c3sc(N)c(C#N)c13)cc1nc(OC[C@@]34CCCN3C[C@H](F)C4)nc(N3CCC[C@@](C)(O)C3)c12 [Example 106, 2-amino-7-fluoro-4-[2-methyl-7-[[(2R,8S)-2-fluoro-1,2,3,5,6,7-hexahydropyrrolizin-8-yl]methoxy]-9-[(3R)-3-hydroxy-3-methyl-1-piperidyl]pyrazolo[4,3-f]quinazolin-4-yl]thieno[3,2-c]pyridine-3-carbonitrile] | D (<49% inhibition at 10 μM) | D (<49% inhibition at 10 μM) | – | – |
| CCc1c(F)ccc2cc(O)cc(-c3c(F)c4nc(OCC5(CN(C)C)CC5)nc(N5CCOC[C@@](C)(O)C5)c4c4cn(C)nc34)c12 [Example 245, (6S)-4-[7-[[1-[(dimethylamino)methyl]cyclopropyl]methoxy]-4-(8-ethyl-7-fluoro-3-hydroxy-1-naphthyl)-5-fluoro-2-methyl-pyrazolo[4,3-f]quinazolin-9-yl]-6-methyl-1,4-oxazepan-6-ol] | – | – | ≤ 10 nM | ≤ 10 nM |
| CCc1c(F)ccc2cc(O)cc(-c3cc4nc(OC[C@@]56CCCN5C[C@H](F)C6)nc(N5CCC(O)C(F)(F)CC5)c4c4cn(C)nc34)c12 (stereo partly drawn) [Example 126, 1-[4-(8-ethyl-7-fluoro-3-hydroxy-1-naphthyl)-2-methyl-7-[[(2R,8S)-2-fluoro-1,2,3,5,6,7-hexahydropyrrolizin-8-yl]methoxy]pyrazolo[4,3-f]quinazolin-9-yl]-5,5-difluoro-azepan-4-ol] | – | – | 10 to 100 nM | 10 to 100 nM |
| CCc1c(F)ccc2cc(O)cc(-c3cc4nc(OC[C@@]56CCCN5C[C@H](F)C6)nc(N5CCCC(C)(C#N)C5)c4c4cn(C)nc34)c12 (stereo partly drawn) [Example 132, 1-[4-(8-ethyl-7-fluoro-3-hydroxy-1-naphthyl)-2-methyl-7-[[(2R,8S)-2-fluoro-1,2,3,5,6,7-hexahydropyrrolizin-8-yl]methoxy]pyrazolo[4,3-f]quinazolin-9-yl]-3-methyl-piperidine-3-carbonitrile] | – | – | 100 to 10000 nM | 100 to 10000 nM |
| CCc1c(F)ccc2cc(O)cc(-c3c(F)c4nc(OCC5(CN6CCCC6)CC5)nc(N5CCC[C@@](C)(O)C5)c4c4cn(C)nc34)c12 [Example 202, (3R)-1-[4-(8-ethyl-7-fluoro-3-hydroxy-1-naphthyl)-5-fluoro-2-methyl-7-[[1-(pyrrolidin-1-ylmethyl)cyclopropyl]methoxy]pyrazolo[4,3-f]quinazolin-9-yl]-3-methyl-piperidin-3-ol] | – | – | ≤ 10 nM | ≤ 10 nM |
| CCc1c(F)ccc2cc(O)cc(-c3cc4nc(OC[C@@]56CCCN5C[C@H](F)C6)nc(N5CCCn6nccc6C5)c4c4cn(C)nc34)c12 [Example 59, 5-ethyl-6-fluoro-4-[2-methyl-7-[[(2R,8S)-2-fluoro-1,2,3,5,6,7-hexahydropyrrolizin-8-yl]methoxy]-9-(4,6,7,8-tetrahydropyrazolo[1,5-a][1,4]diazepin-5-yl)pyrazolo[4,3-f]quinazolin-4-yl]naphthalen-2-ol] | – | – | ≤ 10 nM | 10 to 100 nM |
| CCc1c(F)ccc2cc(O)cc(-c3c(F)c4nc(OCC5(CF)COC5)nc(N5CCCn6nc(C(=O)N(C)C)cc6C5)c4c4cn(C)nc34)c12 [Example 206, 5-[4-(8-ethyl-7-fluoro-3-hydroxy-1-naphthyl)-5-fluoro-7-[[3-(fluoromethyl)oxetan-3-yl]methoxy]-2-methyl-pyrazolo[4,3-f]quinazolin-9-yl]-N,N-dimethyl-4,6,7,8-tetrahydropyrazolo[1,5-a][1,4]diazepine-2-carboxamide] | – | – | ≤ 10 nM | 10 to 100 nM |
| CCc1c(F)ccc2cc(O)cc(-c3c(F)c4nc(OCC5(CN6CCC(F)(F)CC6)CC5)nc(N5CCOCC(C)(O)C5)c4c4cn(C)nc34)c12 (stereo not shown) [Example 229, 4-[7-[[1-[(4,4-difluoro-1-piperidyl)methyl]cyclopropyl]methoxy]-4-(8-ethyl-7-fluoro-3-hydroxy-1-naphthyl)-5-fluoro-2-methyl-pyrazolo[4,3-f]quinazolin-9-yl]-6-methyl-1,4-oxazepan-6-ol] | – | – | ≤ 10 nM | ≤ 10 nM |
| CCc1c(F)ccc2cc(O)cc(-c3cc4nc(OC[C@@]56CCCN5C[C@H](F)C6)nc(N5CCCn6nc(C(=O)N7CCCC7)cc6C5)c4c4cn(C)nc34)c12 [Example 23, [5-[4-(8-ethyl-7-fluoro-3-hydroxy-1-naphthyl)-2-methyl-7-[[(2R,8S)-2-fluoro-1,2,3,5,6,7-hexahydropyrrolizin-8-yl]methoxy]pyrazolo-[4,3-f]quinazolin-9-yl]4,6,7,8-tetrahydropyrazolo[1,5-a][1,4]diazepin-2-yl]-pyrrolidin-1-yl-methanone] | – | – | ≤ 10 nM | ≤ 10 nM |
| CCc1c(F)ccc2cc(O)cc(-c3c(F)c4nc(OCC5(CN6CCC6)CC5)nc(N5CCOCC(C)(O)C5)c4c4cn(C)nc34)c12 (stereo not shown) [Example 214, 4-[7-[[1-(azetidin-1-ylmethyl)cyclopropyl]methoxy]-4-(8-ethyl-7-fluoro-3-hydroxy-1-naphthyl)-5-fluoro-2-methyl-pyrazolo[4,3-f]quinazolin-9-yl]-6-methyl-1,4-oxazepan-6-ol] | – | – | ≤ 10 nM | ≤ 10 nM |
| CCc1c(F)ccc2cc(O)cc(-c3c(C)c4nc(OCC5(C)C[C@@H](O)CN5C)nc(N5CCOCC(C)(O)C5)c4c4cn(C)nc34)c12 (stereo partly drawn) [Example 141, 4-[4-(8-ethyl-7-fluoro-3-hydroxy-1-naphthyl)-2,5-dimethyl-7-[[(4R)-4-hydroxy-1,2-dimethyl-pyrrolidin-2-yl]methoxy]pyrazolo[4,3-f]quinazolin-9-yl]-6-methyl-1,4-oxazepan-6-ol] | – | – | ≤ 10 nM | ≤ 10 nM |
| CCNC(=O)c1cc2n(n1)CCCN(c1nc(OC[C@@]34CCCN3C[C@H](F)C4)nc3cc(-c4cc(O)cc5ccc(F)c(CC)c45)c4nn(C)cc4c13)C2 [Example 21, N-ethyl-5-[4-(8-ethyl-7-fluoro-3-hydroxy-1-naphthyl)-2-methyl-7-[[(2R,8S)-2-fluoro-1,2,3,5,6,7-hexahydropyrrolizin-8-yl]methoxy]pyrazolo[4,3-f]quinazolin-9-yl]-4,6,7,8-tetrahydropyrazolo[1,5-a][1,4]diazepine-2-carboxamide] | – | – | ≤ 10 nM | ≤ 10 nM |
| CCc1c(F)ccc2cc(O)cc(-c3cc4nc(OC[C@@]56CCCN5C[C@H](F)C6)nc(N5CCCC5CO)c4c4cn(C)nc34)c12 (stereo partly drawn) [Example 183, 5-ethyl-6-fluoro-4-[9-[2-(hydroxymethyl)pyrrolidin-1-yl]-2-methyl-7-[[(2R,8S)-2-fluoro-1,2,3,5,6,7-hexahydropyrrolizin-8-yl]methoxy]pyrazolo[4,3-f]quinazolin-4-yl]naphthalen-2-ol] | – | – | ≤ 10 nM | ≤ 10 nM |
| CCc1c(F)ccc2cc(O)cc(-c3c(C)c4nc(OC[C@@]56CCCN5C[C@H](F)C6)nc(N5CCCn6nc(C(=O)N(C)C)c(F)c6C5)c4c4cn(C)nc34)c12 [Example 180, 5-[4-(8-ethyl-7-fluoro-3-hydroxy-1-naphthyl)-2,5-dimethyl-7-[[(2R,8S)-2-fluoro-1,2,3,5,6,7-hexahydropyrrolizin-8-yl]methoxy]pyrazolo[4,3-f]quinazolin-9-yl]-3-fluoro-N,N-dimethyl-4,6,7,8-tetrahydropyrazolo[1,5-a][1,4]diazepine-2-carboxamide] | – | – | ≤ 10 nM | ≤ 10 nM |
| CCc1c(F)ccc2cc(O)cc(-c3c(F)c4nc(OCC5(CN6CCC(C#N)C6)CC5)nc(N5CCOCC(C)(O)C5)c4c4cn(C)nc34)c12 (stereo not shown) [Example 170, 1-[[1-[[4-(8-ethyl-7-fluoro-3-hydroxy-1-naphthyl)-5-fluoro-9-(6-hydroxy-6-methyl-1,4-oxazepan-4-yl)-2-methyl-pyrazolo[4,3-f]quinazolin-7-yl]oxymethyl]cyclopropyl]methyl]pyrrolidine-3-carbonitrile] | – | – | ≤ 10 nM | ≤ 10 nM |
| CCc1c(F)ccc2cc(O)cc(-c3c(C)c4nc(OC[C@@]56CCCN5C[C@H](F)C6)nc(N5CCCn6nc(C(=O)N(C)C)cc6C5)c4c4cn(C)nc34)c12 [Example 80, 5-[4-(8-ethyl-7-fluoro-3-hydroxy-1-naphthyl)-2,5-dimethyl-7-[[(2R,8S)-2-fluoro-1,2,3,5,6,7-hexahydropyrrolizin-8-yl]methoxy]pyrazolo[4,3-f]quinazolin-9-yl]-N,N-dimethyl-4,6,7,8-tetrahydropyrazolo[1,5-a][1,4]diazepine-2-carboxamide] | – | – | ≤ 10 nM | ≤ 10 nM |
| Cn1cc2c(n1)c(-c1c(O)cccc1F)cc1nc(OC[C@@]34CCCN3C[C@H](F)C4)nc(N3CCCOCC3)c12 [Example 4, 3-fluoro-2-[2-methyl-9-(1,4-oxazepan-4-yl)-7-[[(2R,8S)-2-fluoro-1,2,3,5,6,7-hexahydropyrrolizin-8-yl]methoxy]pyrazolo[4,3-f]quinazolin-4-yl]phenol] | D (<49% inhibition at 10 μM) | D (<49% inhibition at 10 μM) | – | – |
